The source of these data is publication PMC5867624, “Molecular Characterization of a Novel N-Acetylneuraminate Lyase from a Deep-Sea Symbiotic Mycoplasma” (Marine Drugs, 2018).

For orientation: Km means the substrate concentration at which the rate is half of its maximum.

One series deals with CC(=O)C(=O)O. Briefly: purified protein. The following applies: synthesis direction, 20 mM ManNAc fixed, 20 mM phosphate pH 7.0, optimal temperature (65 °C).
The target in series [1] is T1, MyNal (Mycoplasma sp., UniProt A0A2P1G7E2). Briefly: LDH/NADH coupled spectrophotometric assay, […] nm, cleavage. It is filed as biochemical. Set-up: gene nanA; full-length gene (885 bp) in pET-32a(+), fusion tags kept, about 52 kDa, E. coli BL21(DE3), Ni-NTA. The note with it: cleavage direction; 20 mM phosphate pH 7.0; optimal temperature and pH (optimum 70 °C).
T1 sequence (A0A2P1G7E2 1-294): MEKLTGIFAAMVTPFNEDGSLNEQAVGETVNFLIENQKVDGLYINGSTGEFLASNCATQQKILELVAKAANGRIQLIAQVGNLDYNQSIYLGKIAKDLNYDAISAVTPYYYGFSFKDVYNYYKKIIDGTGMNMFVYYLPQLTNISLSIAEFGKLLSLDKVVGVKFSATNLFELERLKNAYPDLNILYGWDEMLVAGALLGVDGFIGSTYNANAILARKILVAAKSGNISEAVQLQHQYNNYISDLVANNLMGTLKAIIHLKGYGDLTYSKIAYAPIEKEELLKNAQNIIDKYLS
Series [2] deals with T1, MyNal. The series is described as follows: HPLC of Neu5Ac formed, synthesis. The following applies: synthesis direction; 20 mM pyruvate fixed; 20 mM phosphate pH 7.0; optimal temperature (65 °C). Set-up: gene nanA.

For MyNal (Mycoplasma sp.), the Km with CC(=O)C(=O)O was 5.9 ± 0.9 mM.
`CC(=O)N[C@H]1[C@H]([C@H](O)[C@H](O)CO)OC(O)(C(=O)O)C[C@@H]1O` (stereo partly drawn) [Neu5Ac]: the Michaelis constant (Km) at MyNal [1] was determined as 1.8 ± 0.2 mM.
Take `CC(=O)N[C@@H]1C(O)O[C@H](CO)[C@@H](O)[C@@H]1O` (stereo partly drawn) [ManNAc]: at MyNal [2], the Km amounted to 6.9 ± 0.5 mM.
